Data on four compounds can be found in ChEMBL document CHEMBL2074113, “Interaction of human organic anion transporters 2 and 4 with organic anion transport inhibitors” (J Pharmacol Exp Ther, 2002).

Data set [1] addresses T1, Solute carrier family 22 member 11 (Homo sapiens, UniProt Q9NSA0).
T1 sequence (Q9NSA0 whole entry): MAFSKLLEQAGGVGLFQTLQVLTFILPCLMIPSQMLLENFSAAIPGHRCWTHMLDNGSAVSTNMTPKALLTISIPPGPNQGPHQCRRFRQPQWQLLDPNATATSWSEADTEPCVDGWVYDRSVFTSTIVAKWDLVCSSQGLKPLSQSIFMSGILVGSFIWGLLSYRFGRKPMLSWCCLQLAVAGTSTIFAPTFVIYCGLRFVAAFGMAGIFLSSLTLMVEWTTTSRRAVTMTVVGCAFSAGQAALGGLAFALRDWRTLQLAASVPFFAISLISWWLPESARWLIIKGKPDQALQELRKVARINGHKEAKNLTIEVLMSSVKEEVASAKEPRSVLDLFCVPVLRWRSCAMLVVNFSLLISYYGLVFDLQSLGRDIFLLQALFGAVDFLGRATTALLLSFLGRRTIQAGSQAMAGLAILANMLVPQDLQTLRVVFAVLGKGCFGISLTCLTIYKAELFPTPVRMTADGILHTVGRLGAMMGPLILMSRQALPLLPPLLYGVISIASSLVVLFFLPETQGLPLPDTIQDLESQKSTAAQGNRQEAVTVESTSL
The data set can be described thus: TP_TRANSPORTER: inhibition of E1S uptake in OAT4-expressing S2 cells. The data set is classed as functional, cell-based.

Data set [2] deals with T2, Solute carrier family 22 member 7 (Homo sapiens, UniProt Q9Y694).
T2 sequence (Q9Y694 whole entry): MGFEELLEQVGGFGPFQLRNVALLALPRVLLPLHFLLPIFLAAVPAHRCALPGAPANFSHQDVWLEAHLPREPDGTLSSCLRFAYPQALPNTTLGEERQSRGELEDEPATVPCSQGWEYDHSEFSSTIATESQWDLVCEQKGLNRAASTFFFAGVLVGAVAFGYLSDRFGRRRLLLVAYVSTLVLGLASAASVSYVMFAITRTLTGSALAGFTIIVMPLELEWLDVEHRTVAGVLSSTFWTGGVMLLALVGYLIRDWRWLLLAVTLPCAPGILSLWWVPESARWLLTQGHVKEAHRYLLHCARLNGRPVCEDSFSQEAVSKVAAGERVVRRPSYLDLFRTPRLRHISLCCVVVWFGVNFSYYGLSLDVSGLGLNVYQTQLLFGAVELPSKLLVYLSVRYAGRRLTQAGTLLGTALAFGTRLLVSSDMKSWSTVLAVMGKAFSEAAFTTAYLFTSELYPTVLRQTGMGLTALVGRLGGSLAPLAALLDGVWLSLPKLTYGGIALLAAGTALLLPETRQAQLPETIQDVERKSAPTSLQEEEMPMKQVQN
The data set can be described thus: TP_TRANSPORTER: inhibition of PGF2alpha uptake in OAT2-expressing S2 cells. The data set is classed as functional, cell-based. The following applies: for Activity: s2.

Structures are written as SMILES.

Take `O=C(O)CCNC(=O)c1ccccc1` [BETAMIPRON]: the Ki in data set [1] was 502 µM. The Activity entry in data set [2] was “is not an inhibitor [-]”.
As to `CC1(C)C[C@@H]1C(=O)N/C(=C\CCCCSC[C@H](N)C(=O)O)C(=O)O` [CILASTATIN], in data set [2], the Activity result is “is not an inhibitor [-]”.
With `CCCN(CCC)S(=O)(=O)c1ccc(C(=O)O)cc1` [PROBENECID], the affinity in data set [2] corresponds to a Ki of 766 µM.
For the compound `CCCn1c(=O)c2[nH]c(C34CC5CC(CC3C5)C4)nc2n(CCC)c1=O` [ROLOFYLLINE], the Ki in data set [1] worked out at 20.7 µM. In addition, the Activity entry in data set [2] was “is not an inhibitor [-]”.

What is called Ki is the equilibrium dissociation constant of an inhibitor or competing ligand from its target. A lower Ki goes with higher affinity.
